Our source for the IC50 values is PubChem BioAssay AID624167 (Sanford-Burnham Center for Chemical Genomics, 2012).

Calls of active or inactive are those of the source.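 Rule for the calls: active = mean IC50 for reducing PEG3 promoter reporter signal at or below a set limit, with IC50 above the limit in both counter screens; inactive = the rest, including counter screen hits.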 Where only a bound is given, the exact number is not on record here.

One test deals with GAPDH. Nature of the test: Peg3 promoter luciferase inhibitors, potency, dose response, cell-based, HeLa, CREF/GAPDH counter-screen panel (AID 624167). Conditions: CREF/GAPDH counter-screens.
Test [1] addresses PEG-3 (UniProt Q6IN02). The description is as above. Conditions: HeLa PEG-Prom luciferase reporter, overnight, CREF/GAPDH counter-screens, mean of runs. In general terms: A reporter such as luciferase makes a cellular process visible.
For test [2], the system named is PEG-3. The test is described as above. Conditions: HeLa PEG-Prom luciferase reporter, overnight, CREF/GAPDH counter-screens.
The next test has as its system Rat fibroblasts (CREF). Described as above. Particulars: CREF/GAPDH counter-screens. A general note: Counterscreens check selectivity or assay interference.
Experiment in test [3]: as above
Particulars: CREF/GAPDH counter-screens; GAPDH; mean of runs.

The mark [4] stands for this setting: run 1, dose range 1, individual replicate IC50 per panel.
Setting [5] is: run 2, dose range 1, individual replicate IC50 per panel.

Chain of PEG-3 (UniProt Q6IN02) (Q6IN02 whole entry, looked up): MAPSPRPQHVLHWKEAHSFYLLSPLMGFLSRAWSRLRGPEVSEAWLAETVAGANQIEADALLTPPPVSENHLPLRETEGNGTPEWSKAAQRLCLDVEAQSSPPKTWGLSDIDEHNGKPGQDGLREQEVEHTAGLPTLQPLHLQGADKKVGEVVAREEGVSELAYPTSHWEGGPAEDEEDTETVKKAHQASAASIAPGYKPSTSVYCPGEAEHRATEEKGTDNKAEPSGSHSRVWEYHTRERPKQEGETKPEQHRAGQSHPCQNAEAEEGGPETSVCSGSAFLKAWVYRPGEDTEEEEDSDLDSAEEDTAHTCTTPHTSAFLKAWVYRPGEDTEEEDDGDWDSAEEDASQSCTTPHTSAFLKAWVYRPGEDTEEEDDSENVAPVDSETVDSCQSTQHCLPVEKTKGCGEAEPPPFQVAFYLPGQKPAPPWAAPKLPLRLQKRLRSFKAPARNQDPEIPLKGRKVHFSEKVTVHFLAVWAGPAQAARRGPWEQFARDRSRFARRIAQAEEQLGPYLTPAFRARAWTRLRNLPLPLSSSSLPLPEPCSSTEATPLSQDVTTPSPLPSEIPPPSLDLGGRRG

As usually defined, the IC50 is the concentration needed to halve the response being measured. As for `CC(/C=C/c1ccccc1)=N/NC(=O)c1cc([N+](=O)[O-])cc([N+](=O)[O-])c1`, the IC50 was more than 100 µM in the test on GAPDH (setting [4]); 9.02 µM with GAPDH (setting [5]); more than 100 µM with PEG-3 [2] (setting [4]); 3.58 µM in the test on PEG-3 [2] (setting [5]); 57.3 µM (inactive) in the test with Rat fibroblasts (CREF) (mean of runs); 14.5 µM in the test on Rat fibroblasts (CREF) (setting [4]). The same molecule showed an IC50 in the test on Rat fibroblasts (CREF) (setting [5]) of more than 100 µM. The IC50 entry (on PEG-3 [1]; in test [3]) was “inactive” throughout.
Take `C=CCn1c(COc2ccccc2)nnc1SC(C)C(=O)N/N=C/c1cc(Cl)ccc1O` (centres undefined): the IC50 is more than 100 µM in the test on GAPDH (setting [4]); more than 100 µM with GAPDH (setting [5]); 4.26 µM at PEG-3 [1]; 5.09 µM in the test on PEG-3 [2] (setting [4]); 3.43 µM in the test with PEG-3 [2] (setting [5]); > 100 µM (inactive) with Rat fibroblasts (CREF) (mean of runs). Moreover, the IC50 in the test on Rat fibroblasts (CREF) (setting [4]) is more than 100 µM; with Rat fibroblasts (CREF) (setting [5]) it was more than 100 µM; in test [3], > 100 µM (inactive).
Turning to `COc1ccc(C(NC(C)=O)c2ccc3cccnc3c2O)c(OC)c1` (centres undefined), the half-maximal inhibitory concentration (IC50) in the test with GAPDH (setting [4]) was more than 100 µM; in the test on GAPDH (setting [5]) it was more than 100 µM; at PEG-3 [1], 5.33 µM; in the test with PEG-3 [2] (setting [4]), 3.68 µM; in the test with PEG-3 [2] (setting [5]), 6.97 µM; with Rat fibroblasts (CREF) (mean of runs), 51.8 µM (inactive). Moreover, the IC50 in the test with Rat fibroblasts (CREF) (setting [4]) was 3.55 µM; in the test with Rat fibroblasts (CREF) (setting [5]), more than 100 µM; in test [3], > 100 µM (inactive).
As to `O=C(CCSc1nc2ccccc2s1)N/N=C/c1c(O)ccc2ccccc12`, the IC50 in the test with GAPDH (setting [4]) is more than 100 µM; in the test with GAPDH (setting [5]), more than 100 µM; on PEG-3 [1], 4.29 µM; with PEG-3 [2] (setting [4]), 5.86 µM; with PEG-3 [2] (setting [5]) it was 2.71 µM; with Rat fibroblasts (CREF) (mean of runs), > 100 µM (inactive). Further, the IC50 in the test with Rat fibroblasts (CREF) (setting [4]) was more than 100 µM; in the test on Rat fibroblasts (CREF) (setting [5]), more than 100 µM; in test [3], > 100 µM (inactive).
On to `Cc1ccc(C)c(S(=O)(=O)N2CCN(c3ncnc4sccc34)CC2)c1`, for which the IC50 is 9.4 µM in the test with GAPDH (setting [4]); 48 µM in the test on GAPDH (setting [5]); 2.53 µM on PEG-3 [1]; 2.58 µM in the test with PEG-3 [2] (setting [4]); 2.47 µM in the test on PEG-3 [2] (setting [5]); 58.7 µM (inactive) in the test on Rat fibroblasts (CREF) (mean of runs). For the same molecule, the IC50 in the test with Rat fibroblasts (CREF) (setting [4]) is more than 100 µM; in the test with Rat fibroblasts (CREF) (setting [5]) it was 17.4 µM; in test [3], 28.7 µM.
For `O=[N+]([O-])c1ccc(S(=O)(=O)c2ccccc2)nc1`, the IC50 in the test with GAPDH (setting [4]) was 33.8 µM; in the test on GAPDH (setting [5]), 29.1 µM; at PEG-3 [1], 9 µM; in the test with PEG-3 [2] (setting [4]), 9.44 µM; in the test with PEG-3 [2] (setting [5]) it was 8.56 µM; in the test with Rat fibroblasts (CREF) (mean of runs) it was 54.4 µM (inactive). Also, the IC50 in the test on Rat fibroblasts (CREF) (setting [4]) is 8.84 µM; with Rat fibroblasts (CREF) (setting [5]), more than 100 µM. For the same molecule, the IC50 result in test [3] is “inactive”.
Consider `C=Cc1cc(OC)c2c(c1)c(=O)oc1c2cc(OC)c2c(O)ccc(C3OC(C)C(O)C(C)(O)C3O)c21` (centres undefined), for which the IC50 in the test on GAPDH (setting [4]) was more than 100 µM; in the test on GAPDH (setting [5]), 64.1 µM; at PEG-3 [1], 2.56 µM; in the test on PEG-3 [2] (setting [4]), 2.17 µM; with PEG-3 [2] (setting [5]) it was 2.96 µM; in the test with Rat fibroblasts (CREF) (mean of runs), > 100 µM (inactive). The IC50 in the test on Rat fibroblasts (CREF) (setting [4]) and with Rat fibroblasts (CREF) (setting [5]) was more than 100 µM throughout. Also, the IC50 entry in test [3] was “inactive”.
For `CN(C(=O)COC(=O)/C=C/c1cccc([N+](=O)[O-])c1)C1CCS(=O)(=O)C1` (centres undefined), the IC50 in the test on GAPDH (setting [4]) is more than 100 µM; in the test with GAPDH (setting [5]) it was more than 100 µM; at PEG-3 [1], 0.452 µM; with PEG-3 [2] (setting [4]), 0.452 µM; in the test with PEG-3 [2] (setting [5]), 0.452 µM; in the test with Rat fibroblasts (CREF) (mean of runs) it was > 100 µM (inactive). Further, the IC50 in the test on Rat fibroblasts (CREF) (setting [4]) was more than 100 µM; with Rat fibroblasts (CREF) (setting [5]) it was more than 100 µM; in test [3] it was > 100 µM (inactive).
On to `O=C(CNC(=O)C(c1ccccc1)c1ccccc1)N/N=C/c1ccc(O)cc1O`, for which the IC50 is more than 100 µM with GAPDH (setting [4]); more than 100 µM with GAPDH (setting [5]); 3.59 µM in the test with PEG-3 [2] (setting [4]); more than 100 µM with PEG-3 [2] (setting [5]); > 100 µM (inactive) in the test with Rat fibroblasts (CREF) (mean of runs); more than 100 µM with Rat fibroblasts (CREF) (setting [4]). Also, the IC50 in the test on Rat fibroblasts (CREF) (setting [5]) was more than 100 µM; in test [3] it was > 100 µM (inactive). Moreover, the IC50 entry on PEG-3 [1] is “inactive”.
On to `CCCC(=O)NC(c1ccc(Cl)cc1)c1ccc2cccnc2c1O` (centres undefined), for which the IC50 in the test on GAPDH (setting [4]) was 27.5 µM; in the test on GAPDH (setting [5]), 58.5 µM; at PEG-3 [1], 3.29 µM; in the test with PEG-3 [2] (setting [4]), 2.29 µM; in the test on PEG-3 [2] (setting [5]) it was 4.28 µM; with Rat fibroblasts (CREF) (mean of runs), > 100 µM (inactive). Besides, the IC50 in the test on Rat fibroblasts (CREF) (setting [4]) and with Rat fibroblasts (CREF) (setting [5]) was more than 100 µM in each case. In addition, the IC50 entry in test [3] was “inactive”.
For `O=c1cnnc(N/N=C/c2ccccn2)[nH]1`, the IC50 was more than 100 µM in the test on GAPDH (setting [4]); more than 100 µM with GAPDH (setting [5]); 2.07 µM at PEG-3 [1]; 1.69 µM with PEG-3 [2] (setting [4]); 2.45 µM with PEG-3 [2] (setting [5]); 67.1 µM (inactive) with Rat fibroblasts (CREF) (mean of runs). In addition, the IC50 in the test on Rat fibroblasts (CREF) (setting [4]) was more than 100 µM; in the test with Rat fibroblasts (CREF) (setting [5]), 34.1 µM; in test [3], > 100 µM (inactive).
On to `O=[N+]([O-])c1nn(-c2ccc3c(c2)OCCO3)n(O)c1=Nc1ccc(Cl)cc1`, for which the IC50 in the test with GAPDH (setting [4]) is 2.94 µM; with GAPDH (setting [5]) it was 7.41 µM; on PEG-3 [1] it was 0.673 µM; with PEG-3 [2] (setting [4]) it was 1.07 µM; in the test with PEG-3 [2] (setting [5]) it was 0.271 µM; in the test on Rat fibroblasts (CREF) (mean of runs), > 100 µM (inactive). Moreover, the results for the IC50 (in the test on Rat fibroblasts (CREF) (setting [4]); with Rat fibroblasts (CREF) (setting [5]); in test [3]) were more than 100 µM, more than 100 µM and 5.17 µM, respectively.
With `COc1ccc(C(NC(=O)C(C)C)c2ccc3cccnc3c2O)cc1` (centres undefined), the IC50 is more than 100 µM with GAPDH (setting [4]); more than 100 µM in the test with GAPDH (setting [5]); 4.7 µM on PEG-3 [1]; 3.71 µM with PEG-3 [2] (setting [4]); 5.68 µM in the test on PEG-3 [2] (setting [5]); 23.3 µM with Rat fibroblasts (CREF) (mean of runs). Further, the IC50 in the test on Rat fibroblasts (CREF) (setting [4]) is 12.3 µM; in the test on Rat fibroblasts (CREF) (setting [5]), 34.3 µM; in test [3], > 100 µM (inactive).
In the case of `O=C(N/N=C\c1c(O)ccc2ccccc12)c1ccc(Cn2cccn2)o1`, the 50% inhibitory concentration (IC50) in the test on GAPDH (setting [4]) was more than 100 µM; in the test on GAPDH (setting [5]), more than 100 µM; on PEG-3 [1] it was 6.22 µM; with PEG-3 [2] (setting [4]) it was 3.09 µM; with PEG-3 [2] (setting [5]) it was 9.35 µM; in the test on Rat fibroblasts (CREF) (mean of runs) it was > 100 µM (inactive). Moreover, the IC50 in the test with Rat fibroblasts (CREF) (setting [4]) was more than 100 µM; in the test on Rat fibroblasts (CREF) (setting [5]) it was more than 100 µM; in test [3] it was > 100 µM (inactive).
Regarding `CN(C)CC1CCC/C(=C\c2ccc(OC(=O)c3ccc(Cl)cc3)cc2)C1=O` (centres undefined), the IC50 in the test on GAPDH (setting [4]) was 49.8 µM; with GAPDH (setting [5]), 57.7 µM; on PEG-3 [1], 5.81 µM; in the test with PEG-3 [2] (setting [4]), 6.76 µM; in the test with PEG-3 [2] (setting [5]) it was 4.86 µM; in the test on Rat fibroblasts (CREF) (mean of runs), > 100 µM (inactive). Further, the IC50 with Rat fibroblasts (CREF) (setting [4]) and with Rat fibroblasts (CREF) (setting [5]) was more than 100 µM throughout. Besides, in test [3], the IC50 result is “inactive”.
Take `NC(C(=O)O)C1ON=C(Cl)C1O` (centres undefined): the IC50 is 0.927 µM with GAPDH (setting [4]); 4.8 µM in the test with GAPDH (setting [5]); 0.703 µM at PEG-3 [1]; 0.639 µM in the test on PEG-3 [2] (setting [4]); 0.767 µM with PEG-3 [2] (setting [5]); > 100 µM (inactive) with Rat fibroblasts (CREF) (mean of runs). Also, the results for the IC50 (in the test with Rat fibroblasts (CREF) (setting [4]); in the test with Rat fibroblasts (CREF) (setting [5]); in test [3]) were more than 100 µM, more than 100 µM and 2.86 µM, respectively.
